Assay results as given in BindingDB's records for PubMed 20126400 (University of Oklahoma, 2010).

Tests used:
Assay in all cases: Ray2010 Assay 74
[1] = target: 5-hydroxytryptamine receptor 2B (Homo sapiens, UniProt P41595)
Excerpt: (§1) Table S2 shows raw Ki data for the current study combined with data collected from the literature for the ten additional compounds.

[2] = target: Beta-2 adrenergic receptor (Homo sapiens, UniProt P07550)
Excerpt: as §1

D(1B) dopamine receptor = D(1B) dopamine receptor (Homo sapiens, UniProt P21918)
Excerpt: as §1

[3] = target: Muscarinic acetylcholine receptor M3 (Homo sapiens, UniProt P20309)
Excerpt: as §1

[4] = target: T1, Gamma-aminobutyric acid receptor subunit alpha-1/Adenosine receptor A1 (Homo sapiens, UniProt P14867+P30542)
T1 sequence (P30542 whole entry): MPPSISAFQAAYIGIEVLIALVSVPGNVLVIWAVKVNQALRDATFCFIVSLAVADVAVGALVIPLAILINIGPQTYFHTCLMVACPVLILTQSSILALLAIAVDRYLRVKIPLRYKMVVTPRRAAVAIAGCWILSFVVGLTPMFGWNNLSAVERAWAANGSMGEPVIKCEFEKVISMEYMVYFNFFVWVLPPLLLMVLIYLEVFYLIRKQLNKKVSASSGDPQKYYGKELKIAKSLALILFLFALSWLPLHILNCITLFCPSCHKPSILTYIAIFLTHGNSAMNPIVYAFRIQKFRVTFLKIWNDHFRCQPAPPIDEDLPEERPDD
T1 sequence (P14867 whole entry): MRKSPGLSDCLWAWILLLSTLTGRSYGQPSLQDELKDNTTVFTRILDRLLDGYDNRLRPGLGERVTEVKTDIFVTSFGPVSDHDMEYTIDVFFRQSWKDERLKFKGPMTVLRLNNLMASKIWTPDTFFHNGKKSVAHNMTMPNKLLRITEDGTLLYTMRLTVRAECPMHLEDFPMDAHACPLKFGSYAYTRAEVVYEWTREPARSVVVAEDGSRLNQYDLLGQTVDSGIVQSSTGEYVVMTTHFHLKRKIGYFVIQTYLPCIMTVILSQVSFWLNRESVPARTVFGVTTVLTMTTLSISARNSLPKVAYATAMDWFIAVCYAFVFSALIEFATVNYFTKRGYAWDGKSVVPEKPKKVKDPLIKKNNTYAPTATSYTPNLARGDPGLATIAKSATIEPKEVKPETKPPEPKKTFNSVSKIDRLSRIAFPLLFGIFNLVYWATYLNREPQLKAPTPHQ
Excerpt: as §1

[5] = target: Sigma intracellular receptor 2 (Homo sapiens, UniProt Q5BJF2)
Excerpt: as §1

[6] = target: Voltage-dependent calcium channel subunit alpha-2/delta-1 (Homo sapiens, UniProt P54289)
Excerpt: as §1

Vasopressin V1a receptor = Vasopressin V1a receptor (Homo sapiens, UniProt P37288)
Excerpt: as §1

D(1A) dopamine receptor = D(1A) dopamine receptor (Homo sapiens, UniProt P21728)
Excerpt: as §1

[7] = target: Delta-type opioid receptor (Homo sapiens, UniProt P41143)
Excerpt: as §1

Nischarin = Nischarin (Homo sapiens, UniProt Q9Y2I1)
Excerpt: as §1

[8] = target: Sigma non-opioid intracellular receptor 1 (Homo sapiens, UniProt Q99720)
Excerpt: as §1

Mu-type opioid receptor = Mu-type opioid receptor (Homo sapiens, UniProt P35372)
Excerpt: as §1

[9] = target: Kappa-type opioid receptor (Homo sapiens, UniProt P41145)
Excerpt: as §1

[10] = target: T2, Prostaglandin E2 receptor EP3 subtype (Homo sapiens, UniProt P43115)
T2 sequence (P43115 whole entry): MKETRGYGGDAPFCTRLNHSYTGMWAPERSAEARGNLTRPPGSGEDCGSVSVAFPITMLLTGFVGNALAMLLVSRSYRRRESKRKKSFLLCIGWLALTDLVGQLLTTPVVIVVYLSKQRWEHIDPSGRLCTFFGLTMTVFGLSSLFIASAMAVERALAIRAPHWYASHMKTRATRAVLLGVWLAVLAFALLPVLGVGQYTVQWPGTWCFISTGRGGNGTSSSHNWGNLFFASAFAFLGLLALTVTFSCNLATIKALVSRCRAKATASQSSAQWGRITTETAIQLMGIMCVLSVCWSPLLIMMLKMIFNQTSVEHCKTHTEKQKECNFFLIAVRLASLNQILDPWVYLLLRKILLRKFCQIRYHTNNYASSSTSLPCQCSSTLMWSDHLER
Excerpt: as §1

[11] = target: Sodium-dependent dopamine transporter (Homo sapiens, UniProt Q01959)
Excerpt: as §1

Vasopressin V1b receptor = target: T3, Vasopressin V1b receptor (Homo sapiens, UniProt P47901)
T3 sequence (P47901 whole entry): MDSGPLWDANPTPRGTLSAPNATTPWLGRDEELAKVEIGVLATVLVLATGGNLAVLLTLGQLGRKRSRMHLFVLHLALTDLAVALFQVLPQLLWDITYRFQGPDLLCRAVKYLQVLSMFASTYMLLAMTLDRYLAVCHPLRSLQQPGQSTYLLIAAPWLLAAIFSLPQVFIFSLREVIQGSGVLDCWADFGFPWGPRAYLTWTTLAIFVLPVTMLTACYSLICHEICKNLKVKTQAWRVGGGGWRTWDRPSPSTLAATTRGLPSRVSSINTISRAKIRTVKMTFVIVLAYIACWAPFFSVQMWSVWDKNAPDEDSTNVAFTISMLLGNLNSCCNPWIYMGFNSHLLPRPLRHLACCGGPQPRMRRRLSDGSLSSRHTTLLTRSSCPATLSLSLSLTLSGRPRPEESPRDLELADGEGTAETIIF
Excerpt: as §1

Histamine H3 receptor = Histamine H3 receptor (Homo sapiens, UniProt Q9Y5N1)
Excerpt: as §1

[12] = target: 5-hydroxytryptamine receptor 1B (Homo sapiens, UniProt P28222)
Excerpt: as §1

Cannabinoid receptor 2 = Cannabinoid receptor 2 (Homo sapiens, UniProt P34972)
Excerpt: as §1

Chain of Sodium-dependent dopamine transporter (Q01959 whole entry): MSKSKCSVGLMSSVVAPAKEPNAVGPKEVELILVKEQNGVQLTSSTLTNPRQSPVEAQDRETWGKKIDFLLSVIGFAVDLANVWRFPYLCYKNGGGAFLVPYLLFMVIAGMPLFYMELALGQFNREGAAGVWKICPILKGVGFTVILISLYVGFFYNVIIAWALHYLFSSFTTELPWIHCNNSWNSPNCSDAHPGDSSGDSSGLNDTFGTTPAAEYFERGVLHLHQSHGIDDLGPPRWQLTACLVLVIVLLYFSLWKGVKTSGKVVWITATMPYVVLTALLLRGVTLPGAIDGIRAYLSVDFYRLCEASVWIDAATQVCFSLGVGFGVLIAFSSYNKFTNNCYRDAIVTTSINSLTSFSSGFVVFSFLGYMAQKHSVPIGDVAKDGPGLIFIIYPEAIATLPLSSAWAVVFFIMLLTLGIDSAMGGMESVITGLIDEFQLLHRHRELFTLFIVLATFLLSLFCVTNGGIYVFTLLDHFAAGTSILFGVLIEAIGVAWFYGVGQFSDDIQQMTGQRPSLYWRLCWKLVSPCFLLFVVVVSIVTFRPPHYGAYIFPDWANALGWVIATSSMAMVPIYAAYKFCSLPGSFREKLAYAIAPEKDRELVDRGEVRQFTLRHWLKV
Chain of Sigma non-opioid intracellular receptor 1 (Q99720 whole entry): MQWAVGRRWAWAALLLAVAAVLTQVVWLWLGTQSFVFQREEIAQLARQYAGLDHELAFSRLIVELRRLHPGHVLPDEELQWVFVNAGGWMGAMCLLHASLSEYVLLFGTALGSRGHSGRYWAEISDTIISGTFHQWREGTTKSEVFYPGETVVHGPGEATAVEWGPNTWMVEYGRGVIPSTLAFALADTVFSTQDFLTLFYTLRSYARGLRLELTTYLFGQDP
Chain of D(1A) dopamine receptor (P21728 whole entry): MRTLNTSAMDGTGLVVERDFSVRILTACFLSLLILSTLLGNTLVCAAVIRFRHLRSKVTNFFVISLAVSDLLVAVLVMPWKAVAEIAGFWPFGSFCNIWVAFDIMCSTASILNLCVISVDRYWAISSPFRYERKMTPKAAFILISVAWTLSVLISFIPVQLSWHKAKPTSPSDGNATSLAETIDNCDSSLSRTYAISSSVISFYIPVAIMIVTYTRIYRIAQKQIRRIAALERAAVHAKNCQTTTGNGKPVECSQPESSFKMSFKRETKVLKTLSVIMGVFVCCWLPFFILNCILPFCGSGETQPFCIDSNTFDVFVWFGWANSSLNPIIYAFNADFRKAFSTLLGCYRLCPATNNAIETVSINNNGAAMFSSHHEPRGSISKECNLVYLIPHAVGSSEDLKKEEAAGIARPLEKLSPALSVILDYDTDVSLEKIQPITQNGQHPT
Chain of Sigma intracellular receptor 2 (Q5BJF2 whole entry): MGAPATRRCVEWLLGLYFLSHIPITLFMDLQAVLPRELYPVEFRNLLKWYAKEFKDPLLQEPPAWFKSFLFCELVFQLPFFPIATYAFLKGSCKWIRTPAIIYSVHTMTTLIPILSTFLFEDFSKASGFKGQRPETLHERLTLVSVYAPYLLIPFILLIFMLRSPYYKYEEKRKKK
Chain of 5-hydroxytryptamine receptor 1B (P28222 whole entry): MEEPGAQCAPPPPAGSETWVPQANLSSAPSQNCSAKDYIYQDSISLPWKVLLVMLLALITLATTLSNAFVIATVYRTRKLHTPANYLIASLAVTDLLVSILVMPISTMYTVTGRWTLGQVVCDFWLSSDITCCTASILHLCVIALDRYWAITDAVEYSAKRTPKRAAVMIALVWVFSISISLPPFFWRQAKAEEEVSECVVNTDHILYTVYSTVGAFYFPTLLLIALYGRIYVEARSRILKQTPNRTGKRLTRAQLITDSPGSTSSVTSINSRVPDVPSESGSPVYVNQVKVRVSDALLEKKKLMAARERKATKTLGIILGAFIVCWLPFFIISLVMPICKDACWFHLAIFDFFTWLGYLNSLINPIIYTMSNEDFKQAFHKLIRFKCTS
Chain of Mu-type opioid receptor (P35372 whole entry): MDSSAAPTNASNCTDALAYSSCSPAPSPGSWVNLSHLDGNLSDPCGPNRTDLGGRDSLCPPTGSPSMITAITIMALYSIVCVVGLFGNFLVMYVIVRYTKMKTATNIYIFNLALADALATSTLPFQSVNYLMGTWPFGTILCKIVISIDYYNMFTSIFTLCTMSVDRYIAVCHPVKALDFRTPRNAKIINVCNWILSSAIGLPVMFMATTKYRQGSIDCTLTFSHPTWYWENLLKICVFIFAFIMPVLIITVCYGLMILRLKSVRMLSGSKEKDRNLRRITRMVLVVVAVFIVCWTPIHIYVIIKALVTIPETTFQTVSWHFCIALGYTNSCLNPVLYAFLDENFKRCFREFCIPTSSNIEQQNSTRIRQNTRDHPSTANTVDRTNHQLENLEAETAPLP
Chain of Cannabinoid receptor 2 (P34972 whole entry): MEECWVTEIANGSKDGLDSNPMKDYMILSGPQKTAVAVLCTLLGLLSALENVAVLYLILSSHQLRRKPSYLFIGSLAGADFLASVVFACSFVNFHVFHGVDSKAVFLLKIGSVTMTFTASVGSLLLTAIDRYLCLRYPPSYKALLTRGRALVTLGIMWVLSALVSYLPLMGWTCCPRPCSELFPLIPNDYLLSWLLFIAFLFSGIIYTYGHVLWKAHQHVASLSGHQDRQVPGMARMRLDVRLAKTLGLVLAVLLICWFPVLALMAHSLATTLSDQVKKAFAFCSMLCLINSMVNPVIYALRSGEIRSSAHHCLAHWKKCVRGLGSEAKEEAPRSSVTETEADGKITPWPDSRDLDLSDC
Chain of Voltage-dependent calcium channel subunit alpha-2/delta-1 (P54289 25-956 limits assumed): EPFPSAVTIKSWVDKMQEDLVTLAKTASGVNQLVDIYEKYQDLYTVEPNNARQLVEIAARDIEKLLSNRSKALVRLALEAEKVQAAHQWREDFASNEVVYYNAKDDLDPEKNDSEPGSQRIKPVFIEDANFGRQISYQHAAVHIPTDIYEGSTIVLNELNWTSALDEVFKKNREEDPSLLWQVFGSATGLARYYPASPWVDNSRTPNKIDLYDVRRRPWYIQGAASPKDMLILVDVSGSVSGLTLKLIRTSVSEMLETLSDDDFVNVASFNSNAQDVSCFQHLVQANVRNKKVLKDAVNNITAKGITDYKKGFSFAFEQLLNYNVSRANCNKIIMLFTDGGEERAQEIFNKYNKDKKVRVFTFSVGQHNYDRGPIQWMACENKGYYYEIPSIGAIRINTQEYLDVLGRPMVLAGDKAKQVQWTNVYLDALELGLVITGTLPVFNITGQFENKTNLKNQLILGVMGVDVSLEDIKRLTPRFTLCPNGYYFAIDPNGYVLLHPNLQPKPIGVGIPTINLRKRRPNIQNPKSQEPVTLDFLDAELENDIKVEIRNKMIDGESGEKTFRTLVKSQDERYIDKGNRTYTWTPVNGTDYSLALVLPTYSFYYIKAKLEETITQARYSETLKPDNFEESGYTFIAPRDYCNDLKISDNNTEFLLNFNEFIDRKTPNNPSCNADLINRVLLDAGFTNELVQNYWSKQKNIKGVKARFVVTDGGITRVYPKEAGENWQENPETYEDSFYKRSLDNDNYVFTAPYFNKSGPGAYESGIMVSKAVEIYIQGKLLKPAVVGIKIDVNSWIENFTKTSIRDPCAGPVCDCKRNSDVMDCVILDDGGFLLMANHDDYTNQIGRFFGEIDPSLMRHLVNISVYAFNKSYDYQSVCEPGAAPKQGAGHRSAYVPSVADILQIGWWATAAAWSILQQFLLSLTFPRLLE
Chain of Voltage-dependent calcium channel subunit alpha-2/delta-1 (P54289 957-1103 limits assumed): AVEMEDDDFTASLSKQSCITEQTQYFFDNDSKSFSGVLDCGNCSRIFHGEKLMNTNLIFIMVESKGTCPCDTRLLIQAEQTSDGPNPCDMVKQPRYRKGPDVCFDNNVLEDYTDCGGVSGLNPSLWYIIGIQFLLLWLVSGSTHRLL
Chain of Delta-type opioid receptor (P41143 whole entry): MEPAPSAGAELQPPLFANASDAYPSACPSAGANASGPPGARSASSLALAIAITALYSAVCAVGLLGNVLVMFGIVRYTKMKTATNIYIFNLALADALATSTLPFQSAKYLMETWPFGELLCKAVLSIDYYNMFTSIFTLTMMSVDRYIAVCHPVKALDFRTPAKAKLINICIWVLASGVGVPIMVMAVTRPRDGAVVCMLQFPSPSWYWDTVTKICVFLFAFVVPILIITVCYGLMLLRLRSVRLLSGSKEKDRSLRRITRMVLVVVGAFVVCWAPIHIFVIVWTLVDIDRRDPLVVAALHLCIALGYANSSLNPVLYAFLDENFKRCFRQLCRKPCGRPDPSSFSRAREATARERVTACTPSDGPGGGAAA
Chain of Histamine H3 receptor (Q9Y5N1 whole entry): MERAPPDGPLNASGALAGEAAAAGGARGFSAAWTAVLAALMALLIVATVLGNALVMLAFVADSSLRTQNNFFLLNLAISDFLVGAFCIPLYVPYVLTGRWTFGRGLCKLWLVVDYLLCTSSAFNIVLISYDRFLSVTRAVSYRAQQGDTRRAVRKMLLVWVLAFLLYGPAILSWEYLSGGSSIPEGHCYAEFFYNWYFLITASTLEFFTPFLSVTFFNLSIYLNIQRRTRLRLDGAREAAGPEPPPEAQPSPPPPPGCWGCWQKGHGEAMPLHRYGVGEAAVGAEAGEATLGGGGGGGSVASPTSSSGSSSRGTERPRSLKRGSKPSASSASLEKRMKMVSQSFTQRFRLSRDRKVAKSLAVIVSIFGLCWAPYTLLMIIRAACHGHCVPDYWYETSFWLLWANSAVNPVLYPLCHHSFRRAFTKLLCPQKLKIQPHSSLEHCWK
Chain of Kappa-type opioid receptor (P41145 whole entry): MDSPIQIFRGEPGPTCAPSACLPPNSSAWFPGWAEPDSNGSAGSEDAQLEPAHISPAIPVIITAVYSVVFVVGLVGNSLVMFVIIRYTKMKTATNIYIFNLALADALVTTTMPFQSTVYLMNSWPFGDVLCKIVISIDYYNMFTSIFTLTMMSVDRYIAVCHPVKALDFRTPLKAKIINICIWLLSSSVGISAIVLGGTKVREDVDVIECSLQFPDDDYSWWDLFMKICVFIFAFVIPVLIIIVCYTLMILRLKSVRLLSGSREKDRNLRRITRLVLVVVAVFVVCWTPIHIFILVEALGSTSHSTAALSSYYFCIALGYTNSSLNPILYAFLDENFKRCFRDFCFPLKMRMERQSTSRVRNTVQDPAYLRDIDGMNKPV

SMILES	Ki [1]	Ki [2]	Ki (D(1B) dopamine receptor)	Ki [3]	Ki [4]	Ki [5]	Ki [6]	Ki (Vasopressin V1a receptor)	Ki (D(1A) dopamine receptor)	Ki [7]	Ki (Nischarin)	Ki [8]	Ki (Mu-type opioid receptor)	Ki [9]	Ki [10]	Ki [11]	Ki (Vasopressin V1b receptor)	Ki (Histamine H3 receptor)	Ki [12]	Ki (Cannabinoid receptor 2)
CCOc1cc(OC)c(CC(C)N)cc1OC (centres undefined)	0.0645 µM	> 10 µM	> 10 µM	> 10 µM	> 10 µM	> 10 µM	> 10 µM	> 10 µM	> 10 µM	> 10 µM	> 10 µM	5.08 µM	> 10 µM	> 10 µM	> 10 µM	> 10 µM	> 10 µM	> 10 µM	> 10 µM	> 10 µM
COc1cc(CCN)c(OC)cc1Br	0.0135 µM		> 10 µM	0.822 µM	> 10 µM	> 10 µM		> 10 µM	> 10 µM	> 10 µM	2.16 µM	> 10 µM	> 10 µM	> 10 µM	> 10 µM	> 10 µM	> 10 µM	> 10 µM	0.104 µM	> 10 µM
CCSc1cc(OC)c(CC(N)CC)cc1OC (centres undefined) [1-(4-Ethylsulfanyl-2,5-dimethoxy-benzyl)-propylamine]	0.0581 µM		> 10 µM	> 10 µM	> 10 µM	> 10 µM	> 10 µM	> 10 µM	> 10 µM	> 10 µM	0.947 µM	0.515 µM	> 10 µM	> 10 µM	> 10 µM	> 10 µM	> 10 µM	> 10 µM	> 10 µM	> 10 µM
CCc1cc(OC)c(CCN)cc1OC [2-(2,5-dimethoxy-4-ethylphenyl)ethylamine]	0.0251 µM		> 10 µM	2.56 µM	> 10 µM	> 10 µM	> 10 µM	> 10 µM	> 10 µM	> 10 µM	> 10 µM		> 10 µM	> 10 µM	> 10 µM	> 10 µM	> 10 µM	> 10 µM	0.253 µM	> 10 µM
COc1cc(CC(C)N)c(OC)cc1Br (stereo not drawn) [2-(4-Bromo-2,5-dimethoxy-phenyl)-1-methyl-ethylamine((-)-DOB)]	0.0039 µM		> 10 µM	1.15 µM	> 10 µM	> 10 µM	> 10 µM	> 10 µM	> 10 µM	> 10 µM		2.19 µM	> 10 µM	> 10 µM	> 10 µM	> 10 µM	> 10 µM		0.941 µM	> 10 µM
CCSc1cc(OC)c(CC(C)N)cc1OC (centres undefined) [2-(4-Ethylsulfanyl-2,5-dimethoxy-phenyl)-1-methyl-ethylamine]	0.0016 µM		> 10 µM	1.91 µM	> 10 µM	> 10 µM	> 10 µM	> 10 µM	> 10 µM	> 10 µM	0.32 µM	0.239 µM	> 10 µM	> 10 µM	> 10 µM	> 10 µM	> 10 µM	> 10 µM	2.04 µM	> 10 µM
CCSc1cc(OC)c(CCN)cc1OC [2C-T-2]	0.006 µM		> 10 µM	0.692 µM	> 10 µM	> 10 µM	> 10 µM	> 10 µM	> 10 µM	> 10 µM	2.08 µM	3.87 µM	> 10 µM	> 10 µM	> 10 µM	> 10 µM	> 10 µM	> 10 µM	0.858 µM	> 10 µM
COc1cc(CCN)cc(OC)c1OC [3,4,5-trimethoxyphenylethylamine]		> 10 µM	> 10 µM	> 10 µM	> 10 µM	> 10 µM	> 10 µM	> 10 µM	> 10 µM	> 10 µM	2.68 µM	> 10 µM	> 10 µM	> 10 µM	> 10 µM	> 10 µM	> 10 µM	> 10 µM	> 10 µM	> 10 µM
COc1ccc2[nH]cc(CCN(C(C)C)C(C)C)c2c1 [5-meo-dipt]	0.163 µM	> 10 µM	> 10 µM	> 10 µM	> 10 µM	3 µM	> 10 µM	> 10 µM	> 10 µM	> 10 µM	0.76 µM	9.44 µM	> 10 µM	> 10 µM	> 10 µM	> 10 µM	> 10 µM	> 10 µM		> 10 µM
CC(C)N(CCc1c[nH]c2ccccc12)C(C)C [dipt]	0.398 µM	> 10 µM	> 10 µM	> 10 µM	> 10 µM	2.7 µM	> 10 µM	> 10 µM	> 10 µM	> 10 µM	0.356 µM	1.8 µM	> 10 µM	> 10 µM	> 10 µM	> 10 µM	> 10 µM		> 10 µM	> 10 µM
CCCN(CCC)CCc1c[nH]c2ccccc12 [dpt]	0.042 µM	> 10 µM	> 10 µM	> 10 µM	> 10 µM	2.92 µM	> 10 µM	> 10 µM	> 10 µM	> 10 µM		0.397 µM	> 10 µM	> 10 µM	> 10 µM	1.5 µM	> 10 µM	> 10 µM	0.854 µM	> 10 µM
CNC(C)Cc1ccc2c(c1)OCO2 (centres undefined) [mdma]	0.5 µM	> 10 µM	> 10 µM		> 10 µM		1.2 µM		> 10 µM		0.22 µM		> 10 µM	> 10 µM	> 10 µM	> 10 µM	> 10 µM		> 10 µM	
